In PubChem BioAssay (NCI):
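Test compounds were applied to cells in 96-well plates for 48 hours at 5 doses. TGI marks complete inhibition of growth.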

What was measured:
Test in all cases: growth of human tumour cells (NCI), 48 h
DLD-1 colon = tested on: DLD-1 colon
LOX IMVI melanoma = tested on: LOX IMVI melanoma
LXFL 529 NSCLC = tested on: LXFL 529 NSCLC
HT29 colon = tested on: HT29 colon
DMS 273 small cell lung = tested on: DMS 273 small cell lung
RXF-631 renal = tested on: RXF-631 renal
M19-MEL melanoma = tested on: M19-MEL melanoma
KM20L2 colon = tested on: KM20L2 colon
SNB-78 CNS = tested on: SNB-78 CNS
HOP-18 NSCLC = tested on: HOP-18 NSCLC
DMS 114 small cell lung = tested on: DMS 114 small cell lung
XF 498 CNS = tested on: XF 498 CNS

`CCC(=O)O[C@@H]1C2C(OC(C)=O)C34COC(C)([C@@H]3C3C(C[C@]3(C)OC(C)=O)[C@@H](OC(=O)c3ccccc3)C4=O)[C@H](OC(C)=O)[C@@]2(OC(C)=O)C[C@@H]1C` (stereo not given in full) was tested, and the TGI (DLD-1 colon) was > 100 µM, the TGI (LOX IMVI melanoma) was > 100 µM and the TGI (LXFL 529 NSCLC) was > 100 µM. For the same compound, the TGI (HT29 colon) was > 100 µM, the TGI (DMS 273 small cell lung) was > 100 µM and the TGI (RXF-631 renal) was > 100 µM. The TGI (M19-MEL melanoma) was > 100 µM, the TGI (KM20L2 colon) was > 100 µM and the TGI (SNB-78 CNS) was 73.4 µM. The TGI (HOP-18 NSCLC) was > 100 µM and the TGI (DMS 114 small cell lung) was 51.3 µM.
In the case of `CC(=O)OCCOCNC(=S)N/N=C(\C)c1ccco1`, the TGI (DLD-1 colon) is reported as > 100 µM, the TGI (LOX IMVI melanoma) is reported as > 100 µM and the TGI (LXFL 529 NSCLC) is reported as > 100 µM. The TGI (HT29 colon) was > 100 µM, the TGI (DMS 273 small cell lung) was > 100 µM and the TGI (RXF-631 renal) was > 100 µM. For the same compound, the TGI (M19-MEL melanoma) was > 100 µM, the TGI (KM20L2 colon) was > 100 µM and the TGI (SNB-78 CNS) was > 100 µM. The TGI (HOP-18 NSCLC) was > 100 µM and the TGI (DMS 114 small cell lung) was > 100 µM.
In the case of `CCOC(=O)[C@H]1Nc2ccc(O)cc2C2c3ccccc3CC21` (stereo not given in full), the TGI (DLD-1 colon) is reported as > 100 µM, the TGI (LOX IMVI melanoma) is reported as > 100 µM and the TGI (LXFL 529 NSCLC) is reported as > 100 µM. For the same compound, the TGI (HT29 colon) was > 100 µM, the TGI (DMS 273 small cell lung) was > 100 µM and the TGI (RXF-631 renal) was > 100 µM. The TGI (M19-MEL melanoma) was > 100 µM, the TGI (KM20L2 colon) was > 100 µM and the TGI (SNB-78 CNS) was > 100 µM. For the same compound, the TGI (HOP-18 NSCLC) was > 100 µM and the TGI (DMS 114 small cell lung) was > 100 µM.
`O=C1/C(=C/c2ccc(O)cc2)CCC1CNc1ccc(Cl)cc1` (stereo not given) showed a TGI (DLD-1 colon) of 2.97 µM, a TGI (LOX IMVI melanoma) of 7.24 µM and a TGI (LXFL 529 NSCLC) of 2.39 µM. For the same compound, the TGI (HT29 colon) was 14.9 µM, the TGI (DMS 273 small cell lung) was 12.1 µM and the TGI (RXF-631 renal) was 32.1 µM. It also gave a TGI (M19-MEL melanoma) of 12.5 µM, a TGI (KM20L2 colon) of 14.2 µM and a TGI (SNB-78 CNS) of 33.8 µM. The TGI (HOP-18 NSCLC) was 13.5 µM and the TGI (DMS 114 small cell lung) was 9.02 µM.
With `CC(=O)OC1COC(N2C(=O)C(=O)c3cc(Br)c([N+](=O)[O-])cc32)C(OC(C)=O)C1OC(C)=O` (stereo not given) the TGI (XF 498 CNS) was > 100 µM, the TGI (DLD-1 colon) was > 100 µM and the TGI (LOX IMVI melanoma) was 99 µM. For the same compound, the TGI (LXFL 529 NSCLC) was > 100 µM, the TGI (HT29 colon) was > 100 µM and the TGI (DMS 273 small cell lung) was > 100 µM. For the same compound, the TGI (RXF-631 renal) was > 100 µM, the TGI (M19-MEL melanoma) was 62.5 µM and the TGI (KM20L2 colon) was > 100 µM. For the same compound, the TGI (SNB-78 CNS) was > 100 µM, the TGI (HOP-18 NSCLC) was > 100 µM and the TGI (DMS 114 small cell lung) was 65.8 µM.
With `Cn1cc(C(=O)C2CCCCC2)ccc1=O` the TGI (XF 498 CNS) was > 100 µM, the TGI (DLD-1 colon) was > 100 µM and the TGI (LOX IMVI melanoma) was > 100 µM. For the same compound, the TGI (HT29 colon) was > 100 µM, the TGI (DMS 273 small cell lung) was > 100 µM and the TGI (RXF-631 renal) was > 100 µM. For the same compound, the TGI (KM20L2 colon) was > 100 µM, the TGI (SNB-78 CNS) was > 100 µM and the TGI (DMS 114 small cell lung) was > 100 µM.
